Data from US5972975A, “Substituted 2-aminopyridines as inhibitors of nitric oxide synthase” (priority 1997, dated 1999).
Structures can show the parent of a compound that is named as a salt. Where two headings read alike, the source gives them in different places.

Key:
iNOS = iNOS (Homo sapiens, UniProt P35228); test: NOS activity: L-[3H]citrulline formation from L-[3H]arginine, iNOS; format: biochemical
Description: (§1) NOS activity is measured as the formation of L-[2,3,4,5-^3 H]Citrullinefrom L-[2,3,4,5-^3 H]Arginine. The incubation buffer (100 μL) contained; 100 mM TES, pH 7.5, 5 μM FAD, 5 μM FMN, 10 μM BH4, 0.5 mM NADPH, 0.5 mM DTT, 0.5 mg/mL BSA, 2 mM CaCl2, 10 μg/mL calmodulin (bovine), 1 μM L-Arg, 0.2 μCi L-[2,3,4,5-^3 H]Arg, and the inhibitor in aqueous DMSO (max. 5%). The reaction is initiated by addition of enzyme. Incubations are performed at room temperature for 30 minutes and stopped by the addition of an equal volume of quenching buffer consisting of 200 mM sodium citrate, pH 2.2, 0.02% sodium azide. Reaction products are separated by passing through a cation exchange resin and quantitated as cpm by scintillation counting.

ecNOS = ecNOS (Homo sapiens, UniProt P29474); test: NOS activity: L-[3H]citrulline formation from L-[3H]arginine, ecNOS; format: biochemical
Description: as §1

ncNOS = ncNOS (Homo sapiens, UniProt P29475); test: biochemical
Sequence of ncNOS (P29475 whole entry): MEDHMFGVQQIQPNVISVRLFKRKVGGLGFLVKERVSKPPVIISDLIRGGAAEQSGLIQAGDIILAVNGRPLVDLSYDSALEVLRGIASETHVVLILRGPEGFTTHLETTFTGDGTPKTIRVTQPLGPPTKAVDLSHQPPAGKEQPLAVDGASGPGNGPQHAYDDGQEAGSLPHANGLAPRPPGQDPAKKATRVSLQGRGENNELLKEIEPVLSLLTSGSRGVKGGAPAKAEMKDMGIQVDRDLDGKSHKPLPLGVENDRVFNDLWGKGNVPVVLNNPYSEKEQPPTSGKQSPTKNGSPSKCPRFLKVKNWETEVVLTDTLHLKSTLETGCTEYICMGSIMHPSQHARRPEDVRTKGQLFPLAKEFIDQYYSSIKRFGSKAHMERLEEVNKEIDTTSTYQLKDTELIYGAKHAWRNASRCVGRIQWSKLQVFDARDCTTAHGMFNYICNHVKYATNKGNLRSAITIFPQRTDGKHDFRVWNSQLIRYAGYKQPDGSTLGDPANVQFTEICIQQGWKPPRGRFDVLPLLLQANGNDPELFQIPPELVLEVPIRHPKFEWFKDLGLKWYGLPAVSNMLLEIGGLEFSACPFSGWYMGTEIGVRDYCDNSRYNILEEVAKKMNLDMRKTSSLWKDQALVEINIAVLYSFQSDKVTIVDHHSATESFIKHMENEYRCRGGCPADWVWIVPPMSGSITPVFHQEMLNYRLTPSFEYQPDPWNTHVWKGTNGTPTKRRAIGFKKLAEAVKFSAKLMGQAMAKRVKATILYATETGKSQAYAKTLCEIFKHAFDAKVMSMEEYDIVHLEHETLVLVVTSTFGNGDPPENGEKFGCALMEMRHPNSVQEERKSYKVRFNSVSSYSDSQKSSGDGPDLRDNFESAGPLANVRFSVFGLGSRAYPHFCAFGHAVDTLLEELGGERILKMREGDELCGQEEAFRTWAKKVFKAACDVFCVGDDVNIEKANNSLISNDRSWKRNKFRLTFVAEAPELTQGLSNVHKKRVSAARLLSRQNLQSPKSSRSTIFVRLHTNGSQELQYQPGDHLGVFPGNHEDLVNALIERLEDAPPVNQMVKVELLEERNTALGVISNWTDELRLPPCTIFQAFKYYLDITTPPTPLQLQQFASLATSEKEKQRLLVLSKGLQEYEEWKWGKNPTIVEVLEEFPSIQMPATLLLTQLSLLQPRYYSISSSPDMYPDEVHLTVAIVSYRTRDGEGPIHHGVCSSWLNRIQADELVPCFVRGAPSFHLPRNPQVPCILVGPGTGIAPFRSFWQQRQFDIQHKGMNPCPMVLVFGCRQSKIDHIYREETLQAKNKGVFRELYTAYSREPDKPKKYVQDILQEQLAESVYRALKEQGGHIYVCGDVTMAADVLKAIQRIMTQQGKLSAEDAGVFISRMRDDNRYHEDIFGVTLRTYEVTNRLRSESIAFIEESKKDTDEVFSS

[1] = Table 2, iNOS, 1 μM L-Arg, pH 7.5, room temperature, 30 minutes, read-out: iNOS (IC50)
[2] = Table 2, ecNOS, 1 μM L-Arg, pH 7.5, room temperature, 30 minutes, read-out: ecNOS (IC50)
[3] = Table 2, ncNOS, 1 μM L-Arg, pH 7.5, room temperature, 30 minutes, read-out: ncNOS (IC50)

Structure (SMILES) | IC50 (iNOS; [1]) [µM] | IC50 (ecNOS; [2]) [µM] | IC50 (ncNOS; [3]) [µM] | IC50 (iNOS) [µM] | IC50 (ecNOS) [µM] | IC50 (ncNOS) [µM]
Cc1ccnc(N)c1Cl [Example 28, 2-Amino-3-chloro-4-picoline] | < 1 | < 10 | < 10 |  |  | 
Cc1cc(N)ncc1N [Example 30, 2.5-Diamino-4-picoline] |  |  |  | < 10 | < 50 | < 50
C#Cc1cnc(N)cc1C [Example 32, 2-Amino-5-ethynyl-4-methyl-pyridine] | < 10 | < 50 | < 50 |  |  | 
COc1ccnc(N)c1 [Example 34, 4-Methoxy-2-aminopyridine] | < 10 | < 10 | < 10 |  |  | 
Nc1ccnc(N)c1 [Example 38, 2,4-Diaminopyridine dihydrochloride] | < 10 | < 50 | < 50 |  |  | 
Cc1cc(N)ncc1Br [Example 41, 2-Amino-5-bromo-4-methylpyridine] | < 10 | < 10 | < 10 |  |  | 
Cc1cc(N)ncc1C(=O)O [Example 43, 2-Amino-5-carboxy-4-methylpyridine] | > 50 | > 50 | > 50 |  |  | 
Cc1cc(N)ncc1CN [Example 45, 2-Amino-5-aminomethyl-4-methylpyridine dihydrochloride] | < 10 | < 10 | < 50 |  |  | 
CC(=O)NCc1cnc(N)cc1C [Example 46, 2-Amino-5-acetamidomethyl-4-methylpyridine] | < 10 | > 50 | > 50 |  |  | 
Nc1ncccc1OCC[C@H](N)C(=O)O [Example 48, 2-(2-Amino-3-pyridinoxy)-ethyl-(S)-glycine dihydrochloride] | < 50 | < 10 | < 50 |  |  | 
Cc1ccc(N)nc1C [Example 51, 2-Amino-5,6-dimethylpyridine] | < 10 | < 10 | < 10 |  |  | 
C=CCCc1cc(C)cc(N)n1 [Example 53, 2-Amino-6-(3-buten-1-yl)-4-methylpyridine] | < 1 | < 1 | < 1 |  |  | 
CCc1cc(C)cc(N)n1 [Example 54, 2-Amino-6-ethyl-4-methylpyridine] | < 1 | < 1 | < 1 |  |  | 
Cc1cc(N)nc(C(C)C)c1 [Example 55, 2-Amino-4-methyl-6-(1-methylethyl)pyridine] | < 1 | < 1 | < 10 |  |  | 
Cc1cc(N)nc(CCCCN)c1 [Example 56, 2-Amino-6-(4-aminobutyl)-4-methylpyridine] | < 1 | < 10 | < 1 |  |  | 
CC(=O)NCCCCc1cc(C)cc(N)n1 [Example 57, 6-(4-Acetamidobutyl)-2-amino-4-methylpyridine] | < 10 | < 10 | < 1 |  |  | 
Nc1cccc(Cc2ccccc2)n1 [Example 61, 2-Amino-6-benzylpyridine] | < 50 | > 50 | < 50 |  |  | 
Nc1nccc2c1CCCC2 [Example 65, 1-Amino-5,6,7,8-tetrahydroisoquinoline] | < 50 | < 50 | < 50 |  |  | 
Cc1cc(N)nc(CCCN)c1 [Example 66, 2-Amino-6-(3-aminopropyl)-4-methylpyridine] | < 1 | < 10 | < 1 |  |  | 
Cc1cc(N)nc(CCN)c1 [Example 67, 2-Amino-6-(2-aminoethyl)-4-methylpyridine] | < 1 | < 50 | < 1 |  |  | 
Cc1cc(N)nc(CCCc2ccccc2)c1 [Example 69, 2-Amino-4-methyl-6-(3-phenylpropyl)pyridine] | < 50 | < 50 | < 10 |  |  | 
Cc1cc(N)nc(CCC(C)C)c1 [Example 71, 2-Amino-4-methyl-6-(3-methylbutyl)pyridine] | < 1 | < 10 | < 1 |  |  | 
Cc1cc(N)nc(CC(C)C)c1 [Example 72, 2-Amino-4-methyl-6-(2-methylpropyl)pyridine] | < 1 | < 1 | < 1 |  |  | 
Cc1cc(N)nc(CCc2ccccc2)c1 [Example 73, 2-Amino-4-methyl-6-(2-phenylethyl)pyridine] | < 10 | < 10 | < 10 |  |  | 
Cc1cc(N)nc(CCCC(=O)O)c1 [Example 75, 4-(6-Amino-4-methyl-2-pyridinyl)butanoic acid hydrochloride] | < 10 | < 1 | < 10 |  |  | 
Cc1cc(N)nc(CC[C@H](C)N)c1 [Example 76, (S)-2-Amino-6-(3-aminobutyl)-4-methylpyridine] | < 1 | < 10 | < 1 |  |  | 
Cc1cc(N)nc(CC[C@@H](C)N)c1 [Example 77, (R)-2-Amino-6-(3-aminobutyl)-4-methylpyridine] | < 10 | < 50 | < 1 |  |  | 

Further lines, with some results ahead:

IC50 (iNOS; [1]) [µM] | IC50 (ecNOS; [2]) [µM] | IC50 (ncNOS; [3]) [µM] | Structure (SMILES) | IC50 (iNOS) [µM] | IC50 (ecNOS) [µM] | IC50 (ncNOS) [µM]
< 10 | < 50 | < 50 | Cc1cc(N)ncc1Cl [Example 29, 2-Amino-5-chloro-4-picoline] |  |  | 
< 10 | < 50 | < 50 | CC(=O)Nc1cnc(N)cc1C [Example 31, 5-Acetylamino-2-amino-4-picoline] |  |  | 
< 50 | > 50 | < 10 | CCCCCc1cnc(N)cc1C [Example 33, 2-Amino-4-methyl-5-pentyl-pyridine] |  |  | 
< 50 | < 50 | < 10 | CSc1ccnc(N)c1 [Example 35, 4-Methylthio-2-aminopyridine] |  |  | 
< 50 | > 50 | > 50 | COC(=O)c1cc(Cl)cc(N)n1 [Example 36, 4-Chloro-6-methoxycarbonyl-2-aminopyridine] |  |  | 
< 10 | < 10 | < 1 | C=Cc1c(C)cc(N)nc1C [Example 37, 4,6-Dimethyl-5-ethenyl-2-aminopyridine] |  |  | 
< 1 | < 1 | < 1 | Cc1cnc(N)cc1C [Example 49, 2-Amino-4,5-dimethylpyridine hydrochloride] |  |  | 
< 50 | < 10 | < 10 | Cc1cnc(N)c(C)c1 [Example 50, 2-Amino-3,5-dimethylpyridine] |  |  | 
< 1 | < 1 | < 1 | CCc1cccc(N)n1 [Example 52, 2-Amino-6-ethylpyridine] |  |  | 
< 1 | < 1 | < 1 | Cc1cc(N)nc(CCO)c1 [Example 58, 2-Amino-6-(2-hydroxyethyl)-4-methylpyridine] |  |  | 
< 1 | < 1 | < 1 | Cc1cc(N)nc(CCC(N)C(=O)O)c1 (stereo not drawn) [Example 59, α-(2-(6-Amino-4-methylpyrid-2-yl)ethyl)glycine dihydrochloride] |  |  | 
< 10 | < 50 | < 10 | Cc1cc(N)nc2c1CCCC2 [Example 63, 2-Amino-4-methyl-5,6,7,8-tetrahydroquinoline] |  |  | 
< 10 | < 10 | < 10 | Cc1cc(N)nc(CCCCc2ccccc2)c1 [Example 70, 2-Amino-4-methyl-6-(4-phenylbutyl)pyridine] |  |  | 
< 10 | < 1 | < 10 | Cc1cc(N)nc(CCCCC(=O)O)c1 [Example 74, 5-(6-Amino-4-methyl-2-pyridinyl)pentanoic acid hydrochloride] |  |  | 
